We go through 10 compounds from patent US9650340B2, “5-fluoro-N-(pyridin-2-yl)pyridin-2-amine derivatives containing a sulfoximine group” (BAYER PHARMA AKTIENGESELLSCHAFT, priority 2012, dated 2017).

Series [1] can be described thus: Equilibrium shake flask solubility assay, thermodynamic solubility in water pH 6.5. It counts as physicochemical. To be noted: phosphate buffer pH 6.5, 24 h, room temperature; for solubility at 24 h: phosphate buffer, pH 6.5, aqueous buffer, thermodynamic from solid. The method, then: 4. Equilibrium Shake Flask Solubility Assay:
4a) Thermodynamic Solubility in Water
The thermodynamic solubility of compounds in water was determined by an equilibrium shake flask method (see for example: E. H. Kerns, L. Di: Drug-like Properties: Concepts, Structure Design and Methods, 276-286, Burlington, Mass., Academic Press, 2008). A saturated solution of the drug was prepared and the solution was mixed for 24 h to ensure that equilibrium was reached. The solution was centrifuged to remove the insoluble fraction and the concentration of the compound in solution was determined using a standard calibration curve. To prepare the sample, 2 mg solid compound was weighed in a 4 mL glass vial. 1 mL phosphate buffer pH 6.5 was added. The suspension was stirred for 24 hrs at room temperature. The solution was centrifuged afterwards. To prepare the sample for the standard calibration, 2 mg solid sample was dissolved in 30 mL acetonitrile. After sonification the solution was diluted with water to 50 mL. Sample and standards were quantified by HPLC with UV-detection. For each sample two injection volumes (5 and 50 μl) in triplicates were made. Three injection volumes (5 μl, 10 μl and 20 μl) were made for the standard.
The areas of sample- and standard injections as well as the calculation of the solubility value (in mg/l) were determined by using HPLC software (Waters Empower 2 FR).

Series [2] relates to Caco-2 cell monolayers. Description: Caco-2 permeation assay. The settings on record: for Papp A-B (Mari) / Papp B-A (Mari): Caco-2, 2 μM test compound; for Papp A-B (Mari): apical to basolateral; for Papp B-A (Mari): basolateral to apical. In kind it is in vitro ADME, human. As to the method: (§1) 5. Caco-2 Permeation Assay:
(§2) Caco-2 cells (purchased from DSMZ Braunschweig, Germany) were seeded at a density of 4.5×10^4 cells per well on 24 well insert plates, 0.4 μm pore size, and grown for 15 days in DMEM medium supplemented with 10% fetal bovine serum, 1% GlutaMAX (100×, GIBCO), 100 U/mL penicillin, 100 μg/mL streptomycin (GIBCO) and 1% non essential amino acids (100 ×). Cells were maintained at 37° C. in a humified 5% CO2 atmosphere. Medium was changed every 2-3 day. Before running the permeation assay, the culture medium was replaced by a FCS—free hepes-carbonate transport buffer (pH 7.2). For assessment of monolayer integrity the transepithelial electrical resistance (TEER) was measured. Test compounds were predissolved in DMSO and added either to the apical or basolateral compartment in final concentration of 2 μM in transport buffer. Before and after 2 h incubation at 37° C. samples were taken from both compartments. Analysis of compound content was done after precipitation with methanol by LC/MS/MS analysis. Permeability (Papp) was calculated in the apical to basolateral (A→B) and basolateral to apical (B→A) directions. The apparent permeability was calculated using following equation: Papp=(Vr/Po)(1/S)(P2/t)
(§3) Where Vr is the volume of medium in the receiver chamber, Po is the measured peak area or height of the test drug in the donor chamber at t=o, S the surface area of the monolayer, P2 is the measured peak area of the test drug in the acceptor chamber after 2 h of incubation, and t is the incubation time. The efflux ratio basolateral (B) to apical (A) was calculated by dividing the Papp B-A by the Papp A-B. In addition the compound recovery was calculated. The following reference compounds were used for the classification of the permeability class: Antipyrine, Pyrazosin, Verapamil, Fluvastatin, Cimetidine, Ranitidine, Atenolol, Sulfasalazine.
On the technique in general: Caco-2 cells form a polarised layer with tight junctions and transporters.

A short description of series [3]: Caco-2 permeation assay. In kind it is in vitro ADME, human. To be noted: human; for Papp A→B at 2 h, 2 µM / Papp B→A at 2 h, 2 µM: Caco-2, pH 7.2, Caco-2, 2 μM test compound; for Papp A→B at 2 h, 2 µM: apical to basolateral, read-out: Papp A-B (Mari); for Papp B→A at 2 h, 2 µM: basolateral to apical, read-out: Papp B-A (Mari); for efflux ratio at 2 h, 2 µM: Caco-2, pH 7.2, Caco-2, 2 μM, Papp B-A / Papp A-B. As to the method: as §1, §2, §3

Series [4] has as its target T1, human carbonic anhydrase-1 (Homo sapiens, UniProt P00915).
T1 construct: purchased Sigma C4396
Description: Carbonic anhydrase assay, carbonic anhydrase-1. The settings on record: read-out: Inhibition of Carbonic anhydrase-1 IC50. It counts as biochemical. The method, then:
(§4) 6. Carbonic Anhydrase Assay
(§5) The principle of the assay is based on the hydrolysis of 4-nitrophenyl acetate by carbonic anhydrases (Pocker & Stone, Biochemistry, 1967, 6, 668), with subsequent photometric determination of the dye product 4-nitrophenolate at 400 nm by means of a 96-channel spectral photometer.
(§6) 2 μL of the test compounds, dissolved in DMSO (100-fold final concentration), in a concentration range of 0.03-10 μmol/L (final), was pipetted as quadruplicates into the wells of a 96-hole microtiter plate. Wells that contained the solvent without test compounds were used as reference values (1. Wells without carbonic anhydrase for correction of the non-enzymatic hydrolysis of the substrate, and 2. Wells with carbonic anhydrase for determining the activity of the non-inhibited enzyme).
(§7) 188 μL of assay buffer (10 mmol/L of Tris/HCl, pH 7.4, 80 mmol/L of NaCl), with or without 3 units/well of carbonic anhydrase-1 [=human carbonic anhydrase-1 (Sigma, #C4396)] in order to determine carbonic anhydrase-1 inhibition or 3 units/well of carbonic anhydrase-2 [=human carbonic anhydrase-2 (Sigma, #C6165)] for measuring carbonic anhydrase-2 inhibition, was pipetted into the wells of the microtiter plate.

The target in series [5] is human carbonic anhydrase-2 (Homo sapiens, UniProt P00918). Description: Carbonic anhydrase assay, carbonic anhydrase-2. In kind it is biochemical. To be noted: read-out: Inhibition of Carbonic anhydrase-2 IC50. As to the method:
as §4, §5, §6, §7

Values after ≈ are worked out from the molar mass of the structure shown. Some results are limits rather than exact numbers.

T1 sequence (P00915 whole entry): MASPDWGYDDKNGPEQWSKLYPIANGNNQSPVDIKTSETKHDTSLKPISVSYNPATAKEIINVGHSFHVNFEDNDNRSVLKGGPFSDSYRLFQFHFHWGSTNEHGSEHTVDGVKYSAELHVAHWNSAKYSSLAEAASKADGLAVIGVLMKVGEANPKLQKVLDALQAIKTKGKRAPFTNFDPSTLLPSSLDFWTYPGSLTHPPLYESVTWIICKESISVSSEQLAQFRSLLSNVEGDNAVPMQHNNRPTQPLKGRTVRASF

As for `COc1cc(F)ccc1-c1cc(Nc2cc(CS(C)(=N)=O)ccn2)ncc1F` (single isomer, unassigned; (-)) [Example 3, (−)-5-Fluoro-4-(4-fluoro-2-methoxyphenyl)-N-{4-[(S-methylsulfonimidoyl)methyl]pyridin-2-yl}pyridin-2-amine], the “Solubility in water at pH 6.5” value in series [1] came to 27 mg/l. For the same compound, in series [2], the “Papp A-B (Mari)” value turned out to be 13.3 ×10⁻⁶ cm/s and the “Papp B-A (Mari)” value was 19.7 ×10⁻⁶ cm/s.

`COc1cc(F)ccc1-c1cc(Nc2cc(CS(C)(=N)=O)cc(F)n2)ncc1F` (racemic) [Example 17, (rac)-5-Fluoro-4-(4-fluoro-2-methoxyphenyl)-N-{6-fluoro-4-[(S-methylsulfonimidoyl)methyl]pyridin-2-yl}pyridin-2-amine]: in series [3], the Papp A→B at 2 h, 2 µM came out at 14.1 ×10⁻⁶ cm/s; the Papp B→A at 2 h, 2 µM worked out at 13.5 ×10⁻⁶ cm/s; the efflux ratio at 2 h, 2 µM was 0.96.

`COc1cc(F)ccc1-c1cc(Nc2cc(CS(C)(=N)=O)cc(C(F)(F)F)n2)ncc1F` (single isomer, unassigned; (-)) [Example 23, (−)-5-Fluoro-4-(4-fluoro-2-methoxyphenyl)-N-{4-[(S-methylsulfonimidoyl)methyl]-6-(trifluoromethyl)pyridin-2-yl}pyridin-2-amine]: in series [2], the “Papp A-B (Mari)” value came out at 4.7 ×10⁻⁶ cm/s and the “Papp B-A (Mari)” value was found to be 6.2 ×10⁻⁶ cm/s. Further, the Efflux ratio in series [2] (Caco-2, 2 μM, Papp B-A / Papp A-B) stood at 1.3.

On to `COc1cc(F)ccc1-c1cc(Nc2cc(CS(C)(=N)=O)cc(C(F)(F)F)n2)ncc1F` (racemic) [Example 21, (rac)-5-Fluoro-4-(4-fluoro-2-methoxyphenyl)-N-{4-[(S-methylsulfonimidoyl)methyl]-6-(trifluoromethyl)pyridin-2-yl}pyridin-2-amine], for which, in series [3], the Papp A→B at 2 h, 2 µM was determined as 5.1 ×10⁻⁶ cm/s; the Papp B→A at 2 h, 2 µM was found to be 3.3 ×10⁻⁶ cm/s; the efflux ratio at 2 h, 2 µM worked out at 0.64.

With `CCS(=N)(=O)Cc1ccnc(Nc2cc(-c3ccc(F)cc3OC)c(F)cn2)c1` (racemic) [Example 30, (rac)-N-{4-[(S-Ethylsulfonimidoyl)-methyl]pyridin-2-yl}-5-fluoro-4-(4-fluoro-2-methoxyphenyl)pyridin-2-amine], in series [3], the Papp A→B at 2 h, 2 µM turned out to be 18.6 ×10⁻⁶ cm/s; the Papp B→A at 2 h, 2 µM was 17.2 ×10⁻⁶ cm/s; the efflux ratio at 2 h, 2 µM was determined as 0.92.

Regarding `COc1cc(F)ccc1-c1cc(Nc2cc(CS(C)(=N)=O)cc(C(F)(F)F)n2)ncc1F` (single isomer, unassigned; (+)) [Example 22, (+)-5-Fluoro-4-(4-fluoro-2-methoxyphenyl)-N-{4-[(S-methylsulfonimidoyl)methyl]-6-(trifluoromethyl)pyridin-2-yl}pyridin-2-amine], in series [3], the Papp A→B at 2 h, 2 µM is 4.8 ×10⁻⁶ cm/s; the Papp B→A at 2 h, 2 µM turned out to be 5.3 ×10⁻⁶ cm/s; the efflux ratio at 2 h, 2 µM stood at 1.1.

`COc1cc(F)ccc1-c1cc(Nc2cc(CS(C)(=N)=O)ccn2)ncc1F` (racemic) [Example 1, (rac)-5-Fluoro-4-(4-fluoro-2-methoxyphenyl)-N-{4-[(S-methylsulfonimidoyl)methyl]pyridin-2-yl}pyridin-2-amine]: the IC50 in series [4] and in series [5] was greater than 10 µM in each case. For the same compound, in series [1], the solubility at 24 h came out at 13 µg/mL (≈ 32.1 µM). For the same compound, the Papp A→B at 2 h, 2 µM in series [3] was 15.5 ×10⁻⁶ cm/s. Moreover, the Papp B→A at 2 h, 2 µM in series [3] is 18 ×10⁻⁶ cm/s.

In the case of `COc1cc(F)ccc1-c1cc(Nc2cc(CS(C)(=N)=O)cc(C)n2)ncc1F` (racemic) [Example 4, (rac)-5-Fluoro-4-(4-fluoro-2-methoxyphenyl)-N-{6-methyl-4-[(S-methylsulfonimidoyl)methyl]pyridin-2-yl}pyridin-2-amine], in series [3], the Papp A→B at 2 h, 2 µM was determined as 19.6 ×10⁻⁶ cm/s; the Papp B→A at 2 h, 2 µM is 14.9 ×10⁻⁶ cm/s; the efflux ratio at 2 h, 2 µM is 0.76.

In turn, `COc1cc(F)ccc1-c1cc(Nc2cc(CS(C)(=N)=O)ccn2)ncc1F` (single isomer, unassigned; (+)) [Example 2, (+)-5-Fluoro-4-(4-fluoro-2-methoxyphenyl)-N-{4-[(S-methylsulfonimidoyl)methyl]pyridin-2-yl}pyridin-2-amine] showed a solubility at 24 h in series [1] of 25 µg/mL (≈ 61.8 µM). In series [3], the apical-to-basolateral permeability (Papp A→B) at 2 h, 2 µM was determined as 16.6 ×10⁻⁶ cm/s and the Papp B→A at 2 h, 2 µM was 18.6 ×10⁻⁶ cm/s.

With `COc1cc(F)ccc1-c1cc(Nc2cc(CS(=N)(=O)CCO)ccn2)ncc1F` (racemic) [Example 8, (rac)-2-{S-[(2-{[5-Fluoro-4-(4-fluoro-2-methoxyphenyl)pyridin-2-yl]amino}pyridin-4-yl)methyl]sulfonimidoyl}ethanol], in series [3], the Papp A→B at 2 h, 2 µM came out at 4.1 ×10⁻⁶ cm/s; the Papp B→A at 2 h, 2 µM was 24.6 ×10⁻⁶ cm/s; the efflux ratio at 2 h, 2 µM was 6.

A word on the Papp A→B: it is how fast a substance crosses the layer from the apical side. As a reminder, the Papp B→A is the apparent permeability from the basolateral to the apical side of a cell layer. For orientation: efflux ratio means the permeability from basolateral to apical divided by that in the opposite direction, in the common usage. One may read the IC50 as the point on the concentration scale where inhibition reaches its midpoint. Broadly, the solubility is the dissolved amount per volume that the medium holds.
